Measurements taken from US8309726B2, “Substituted piperazine compounds of formula 8” (Council of Scientific & Industrial Research, priority 2007, dated 2012).

How the values were obtained:
Colon cancer cell lines = test: In vitro cytotoxicity, colon panel; format: cell-based; details: Homo sapiens, average of six to nine different cancer cell lines, 48 h, SRB, read-out: Log GI50 (concentration in mol/L causing 50% growth inhibition) (converted)
Procedure: (§1) In vitro evaluation of cytotoxic activity: Compounds were evaluated for in vitro anticancer activity against sixty human tumour cells derived from nine cancer types (colon, prostate, oral, lung, cervix and breast cancer) as shown in (Table 1, 2 and 3) 8b, 8c, 8d, and 8e, were evaluated for in vitro anticancer activity against sixty human tumour cells derived from nine cancer types (leukemia, non-small-cell lung, colon, CNS, melanoma, ovarian, prostate, and breast cancer) as shown in (Table 2 and 3). For the compound, dose response curves for each cell line were measured at a minimum of five concentrations at 10 fold dilutions. A protocol of 48 h continuous drug exposure was used and a sulforhodamine B (SRB) protein assay was used to estimate cell viability or growth. The concentration causing 50% cell growth inhibition (GI50), total cell growth inhibition (TGI 0% growth) and 50% cell death (LC50, −50% growth) compared with the control was calculated. The mean graph midpoint values of log10 TGI and log10 LC50 as well as log10 GI50 for 8a, 8b, 8c, 8d, and 8e, are listed in (Table 2 and 3).
(§2) Each cancer type represents the average of six to nine different cancer cell lines. The compounds 8a, 8b, 8c, 8d, 8e and 8f were evaluated for in vitro anticancer activity against sixty human tumour cells derived from nine cancer types (leukemia, colon, prostate, renal melanoma CNS, lung, cervix and breast cancer) as shown in Table 3. Compounds 8b, 8c, 8d and 8e show promising cytotoxicity against some cancer cell lines (Table 2). Compounds 8b, 8c, 8d and 8e have been evaluated for their in vitro cytotoxicity in selected human cancer cell lines of colon (Colo205), lung (Hop-62), cervix (SiHa), prostate (DU145, PC3), oral (DWD, HT1080), and breast (MCF7, Zr-75-1) origin. A protocol of 48 h continuous drug exposure has been used and an […] has been used to estimate cell viability or growth. The results are expressed as percent of cell growth determined relative to that of untreated control cells. […] In the breast cancer panel, the growth of BT-549, MCF-7 cell lines are 10.3, and 17.6. In the prostate cancer panel, the growth of DU-145, PC-3 cell lines are 11.3, and 19.2. The GI50 values of compound In the CNS cancer panel, the growth of SF-539, SNB-75 cell lines are […]. […] In vitro cytotoxicity of compounds 8a, and 8b in selected cancer cell lines has been illustrated in Table 3. The average GI50 values for each cancer panel of compounds 8b, 8c, 8d and 8e have been illustrated in above Table 2 and 3

Renal cancer cell lines = test: In vitro cytotoxicity, renal panel; format: cell-based; details: Homo sapiens, average of six to nine different cancer cell lines, 48 h, SRB, read-out: Log GI50 (concentration in mol/L causing 50% growth inhibition) (converted)
Procedure: as §1, §2

[1] = tested on: Leukemia cancer cell lines; test: In vitro cytotoxicity, leukemia panel; format: cell-based; details: Homo sapiens, average of six to nine different cancer cell lines, 48 h, SRB, read-out: Log GI50 (concentration in mol/L causing 50% growth inhibition) (converted)
Procedure: as §1, §2

[2] = tested on: Melanoma cancer cell lines; test: In vitro cytotoxicity, melanoma panel; format: cell-based; details: Homo sapiens, average of six to nine different cancer cell lines, 48 h, SRB, read-out: Log GI50 (concentration in mol/L causing 50% growth inhibition) (converted)
Procedure: as §1, §2

[3] = tested on: DU-145 cell line (prostate cancer); test: In vitro cytotoxicity, DU-145; format: cell-based; details: Homo sapiens; DU-145, prostate cancer panel; unit inferred; read-out: growth (GI50)
Procedure: (§3) In vitro evaluation of cytotoxic activity: Compounds were evaluated for in vitro anticancer activity against sixty human tumour cells derived from nine cancer types (colon, prostate, oral, lung, cervix and breast cancer) as shown in (Table 1, 2 and 3) 8b, 8c, 8d, and 8e, were evaluated for in vitro anticancer activity against sixty human tumour cells derived from nine cancer types (leukemia, non-small-cell lung, colon, CNS, melanoma, ovarian, prostate, and breast cancer) as shown in (Table 2 and 3). For the compound, dose response curves for each cell line were measured at a minimum of five concentrations at 10 fold dilutions. […]
(§4) Each cancer type represents the average of six to nine different cancer cell lines. The compounds 8a, 8b, 8c, 8d, 8e and 8f were evaluated for in vitro anticancer activity against sixty human tumour cells derived from nine cancer types (leukemia, colon, prostate, renal melanoma CNS, lung, cervix and breast cancer) as shown in Table 3. […] Compounds 8b, 8c, 8d and 8e have been evaluated for their in vitro cytotoxicity in selected human cancer cell lines of colon (Colo205), lung (Hop-62), cervix (SiHa), prostate (DU145, PC3), oral (DWD, HT1080), and breast (MCF7, Zr-75-1) origin. […] The results are expressed as percent of cell growth determined relative to that of untreated control cells. […]

calf thymus (CT) DNA = test: Thermal denaturation studies with duplex-form calf thymus DNA; format: binding
Procedure: Compounds were subjected to thermal denaturation studies with duplex-form calf thymus DNA (CT-DNA) using an adaptation of a reported procedure. Working solutions in aqueous buffer (10 mM NaH2PO4/Na2HPO4, 1 mM Na2EDTA, pH 7.00+/−0.01) containing CT-DNA (100 μM in phosphate) and the PBD (20 μM) were prepared by addition of concentrated ANCD solutions in DMSO to obtain a fixed [ANCD]/[DNA] molar ratio of 1:5. The DNA-ANCD solutions were incubated at 37° C. for 0, 18, and 36 h prior to analysis. Samples were monitored at 260 nm using a Beckman DU-7400 spectrophotometer fitted with high performance temperature controller, and heating was applied at 1° C. min^−1 in the 40-90° C. range. DNA helix coil transition temperatures (Tm) were obtained from the maxima in the (dA260)/dT derivative plots. Results are given as the mean+/−standard deviation from three determinations and are corrected for the effects of DMSO co-solvent using a linear correction term. Drug-induced alterations in DNA melting behaviour are given by: ΔTm=Tm (DNA+ANCD)−Tm (DNA alone), where the Tm value for the ANCD-free CT-DNA is 69.0+/−0.01.

[4] = tested on: MCF-7 cell line (breast cancer); test: In vitro cytotoxicity, MCF-7; format: cell-based; details: Homo sapiens, MCF7; MCF-7, breast cancer panel; unit inferred; read-out: growth (GI50)
Procedure: as §3, §4

[5] = tested on: PC-3 cell line (prostate cancer); test: In vitro cytotoxicity, PC-3; format: cell-based; details: Homo sapiens; PC-3, prostate cancer panel; unit inferred; read-out: growth (GI50)
Procedure: as §3, §4

[6] = tested on: Ovarian cancer cell lines; test: In vitro cytotoxicity, ovarian panel; format: cell-based; details: Homo sapiens, average of six to nine different cancer cell lines, 48 h, SRB, read-out: Log GI50 (concentration in mol/L causing 50% growth inhibition) (converted)
Procedure: as §1, §2

Breast cancer cell lines = test: In vitro cytotoxicity, breast panel; format: cell-based; details: Homo sapiens, average of six to nine different cancer cell lines, 48 h, SRB, read-out: Log GI50 (concentration in mol/L causing 50% growth inhibition) (converted)
Procedure: as §1, §2

[7] = tested on: EKVX cell line (non-small cell lung cancer); test: In vitro cytotoxicity, EKVX; format: cell-based; details: Homo sapiens, non-small cell lung cancer panel
Procedure: as §3, §4

CNS cancer cell lines = test: In vitro cytotoxicity, CNS panel; format: cell-based; details: Homo sapiens, average of six to nine different cancer cell lines, 48 h, SRB, read-out: Log GI50 (concentration in mol/L causing 50% growth inhibition) (converted)
Procedure: as §1, §2

human tumour cell lines = test: In vitro anticancer activity against sixty human tumour cell lines (NCI, SRB assay); format: cell-based
Procedure: as §1, §2

[8] = tested on: NCI-H226 cell line (non-small cell lung cancer); test: In vitro cytotoxicity, NCI-H226; format: cell-based; details: Homo sapiens; NCI-H226, non-small cell lung cancer panel
Procedure: as §3, §4

[9] = tested on: Prostate cancer cell lines; test: In vitro cytotoxicity, prostate panel; format: cell-based; details: Homo sapiens, average of six to nine different cancer cell lines, 48 h, SRB, read-out: Log GI50 (concentration in mol/L causing 50% growth inhibition) (converted)
Procedure: as §1, §2

[10] = tested on: Nonsmall-cell-lung cancer cell lines; test: In vitro cytotoxicity, non-small-cell lung panel; format: cell-based; details: Homo sapiens, average of six to nine different cancer cell lines, 48 h, SRB, read-out: Log GI50 (concentration in mol/L causing 50% growth inhibition) (converted)
Procedure: as §1, §2

[11] = tested on: BT-549 cell line (breast cancer); test: In vitro cytotoxicity, BT-549; format: cell-based; details: Homo sapiens; BT-549, breast cancer panel; unit inferred; read-out: growth (GI50)
Procedure: as §3, §4

HL-60 (TB) (leukemia) = test: In vitro cytotoxicity, HL-60 (TB); format: cell-based; details: Homo sapiens, leukemia panel
Procedure: as §3, §4

COc1cc(C(=O)N2CCN(c3ccccn3)CC2)c(N)cc1OCc1ccccc1 [Compound 8b, [2-amino-4-(benzyloxy)-5-methoxyphenyl][4-(2-pyridyl)piperazino]methanone]
GI50 (Colon cancer cell lines): 6.76 µM | GI50 (Renal cancer cell lines): 5.62 µM | GI50 [1]: 5.5 µM | GI50 [2]: 1.78 µM | GI50 [3]: 11.3 µM | ΔTm (° C.) after incubation at 37° C. for 0 h (calf thymus (CT) DNA; [ANCD]/[DNA] molar ratio 1:5, CT-DNA 100 μM, ligand 20 μM, sodium phosphate buffer pH 7.00, 0 h at 37° C.): 1.5 °C | ΔTm (° C.) after incubation at 37° C. for 18 h (calf thymus (CT) DNA; [ANCD]/[DNA] molar ratio 1:5, CT-DNA 100 μM, ligand 20 μM, sodium phosphate buffer pH 7.00, 18 h at 37° C.): 2.1 °C | ΔTm (° C.) after incubation at 37° C. for 36 h (calf thymus (CT) DNA; [ANCD]/[DNA] molar ratio 1:5, CT-DNA 100 μM, ligand 20 μM, sodium phosphate buffer pH 7.00, 36 h at 37° C.): 2.6 °C | Course of ΔTm over incubation at 0 hr, 18 hr and 36 hr (calf thymus (CT) DNA; incubation at 37° C., [ANCD]/[DNA] 1:5): gradually increased | GI50 [4]: 17.6 µM | GI50 [5]: 19.2 µM | GI50 [6]: 5.75 µM | GI50 (Breast cancer cell lines): 6.76 µM | GI50 [7]: 12.4 µM | GI50 (CNS cancer cell lines): 5.89 µM | Log10LC50 mean graph midpoint (MG_MID) (human tumour cell lines; 50% cell death, 48 h continuous drug exposure, SRB assay): −4.05 | Log10GI50 mean graph midpoint (MG_MID) (human tumour cell lines; 50% cell growth inhibition, 48 h continuous drug exposure, SRB assay): −5.62 | GI50 (human tumour cell lines; Homo sapiens, fifty-five cell lines in nine cancer cell panels): < 10 µM | antiproliferative activity (human tumour cell lines; against most of the tested cell lines): nanomolar to low micromolar concentrations | Log10TGI50 mean graph midpoint (MG_MID) (human tumour cell lines; total cell growth inhibition, 48 h continuous drug exposure, SRB assay): −5.12 | GI50 [8]: 13.6 µM | GI50 [9]: 16.6 µM | GI50 [10]: 4.57 µM | GI50 [11]: 10.3 µM | GI50 (HL-60 (TB) (leukemia)): 16.5 µM
